Drawing on paper PMC4741878, “Specific inhibition by synthetic analogs of pyruvate reveals that the pyruvate dehydrogenase reaction is essential for metabolism and viability of glioblastoma cells” (Oncotarget, 2015), this text covers Ki for 2 compounds.

Molecules are shown by their SMILES.

Experiment [1] addresses T1, pyruvate dehydrogenase (PDH; E1 component of the pyruvate dehydrogenase complex, PDHC) (Rattus norvegicus, UniProt P26284+P49432).
T1 construct: gene Pdha1; native PDHC partially purified from rat heart or liver; PDHC in alamethicin-permeabilized rat skeletal muscle mitochondria; with PDHB (E1 beta subunit), within the PDHC with DLAT, DLD and PDHX
Briefly: overall PDHC reaction by NADH production: Ki in permeabilized mitochondria; IC50 […] with isolated rat heart PDHC at […] pyruvate. The format is biochemical.

Experiment [2] addresses T1, pyruvate dehydrogenase (PDH; E1 component of the pyruvate dehydrogenase complex, PDHC). Briefly: overall PDHC reaction by NADH production: Ki in permeabilized mitochondria; IC50 […] with isolated rat heart PDHC ([…] min preincubation). The class given is biochemical.

T1 sequence (P26284 30-390): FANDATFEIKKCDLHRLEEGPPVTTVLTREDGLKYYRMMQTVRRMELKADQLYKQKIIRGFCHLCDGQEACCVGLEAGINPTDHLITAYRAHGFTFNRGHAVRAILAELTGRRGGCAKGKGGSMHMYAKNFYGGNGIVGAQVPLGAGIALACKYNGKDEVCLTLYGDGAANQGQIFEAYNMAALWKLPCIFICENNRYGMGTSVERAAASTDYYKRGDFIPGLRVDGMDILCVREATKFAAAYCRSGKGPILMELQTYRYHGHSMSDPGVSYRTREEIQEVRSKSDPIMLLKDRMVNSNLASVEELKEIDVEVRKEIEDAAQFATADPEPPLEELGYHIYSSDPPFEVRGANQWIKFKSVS
T1 sequence (P49432 31-359): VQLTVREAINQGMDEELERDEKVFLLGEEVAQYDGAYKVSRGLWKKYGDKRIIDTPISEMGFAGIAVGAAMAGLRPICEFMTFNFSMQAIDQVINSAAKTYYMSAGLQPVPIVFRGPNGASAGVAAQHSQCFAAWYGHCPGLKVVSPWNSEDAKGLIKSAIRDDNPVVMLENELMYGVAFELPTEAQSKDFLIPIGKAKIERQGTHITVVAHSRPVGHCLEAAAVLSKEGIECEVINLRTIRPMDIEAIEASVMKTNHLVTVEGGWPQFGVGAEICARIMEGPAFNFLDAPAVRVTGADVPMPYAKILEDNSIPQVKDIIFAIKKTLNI
T1 sequence (P08461 78-632 partner): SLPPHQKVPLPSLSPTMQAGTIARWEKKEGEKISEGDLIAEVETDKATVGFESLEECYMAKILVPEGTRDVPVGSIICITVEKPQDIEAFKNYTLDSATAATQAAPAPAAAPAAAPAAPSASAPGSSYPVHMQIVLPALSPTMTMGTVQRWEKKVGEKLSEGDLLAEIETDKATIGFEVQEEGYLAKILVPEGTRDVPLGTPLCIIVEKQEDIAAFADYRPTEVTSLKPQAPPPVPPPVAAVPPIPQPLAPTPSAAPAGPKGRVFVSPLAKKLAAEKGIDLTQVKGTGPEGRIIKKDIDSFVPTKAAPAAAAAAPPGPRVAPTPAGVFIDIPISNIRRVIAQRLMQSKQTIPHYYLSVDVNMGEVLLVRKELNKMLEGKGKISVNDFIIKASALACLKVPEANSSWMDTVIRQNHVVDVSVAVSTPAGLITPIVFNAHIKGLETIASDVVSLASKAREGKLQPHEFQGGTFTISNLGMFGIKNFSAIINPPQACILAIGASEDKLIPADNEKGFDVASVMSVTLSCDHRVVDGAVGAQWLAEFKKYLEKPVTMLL
T1 sequence (Q6P6R2 36-509 partner): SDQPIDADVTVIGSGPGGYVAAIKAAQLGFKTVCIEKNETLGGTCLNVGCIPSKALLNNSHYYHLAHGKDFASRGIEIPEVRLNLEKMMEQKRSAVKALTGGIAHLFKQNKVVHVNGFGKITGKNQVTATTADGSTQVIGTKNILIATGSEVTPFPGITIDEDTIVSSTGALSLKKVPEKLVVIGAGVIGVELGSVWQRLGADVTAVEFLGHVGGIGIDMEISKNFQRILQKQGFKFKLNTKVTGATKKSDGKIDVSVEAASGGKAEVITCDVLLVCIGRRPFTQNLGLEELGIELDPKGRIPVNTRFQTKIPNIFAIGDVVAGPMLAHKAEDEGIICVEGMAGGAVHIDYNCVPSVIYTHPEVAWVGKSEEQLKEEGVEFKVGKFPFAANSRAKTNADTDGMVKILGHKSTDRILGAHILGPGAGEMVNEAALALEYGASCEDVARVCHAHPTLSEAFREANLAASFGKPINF

For orientation: Ki means a dissociation constant, usually derived from enzyme kinetics or from competition with a known ligand. The low end stands for higher affinity, the high end for lower affinity. Turning to `COP(=O)(O)C(C)=O` [AcPMe, methyl ester of acetyl phosphonate], the Ki in experiment [1] stood at 40 µM.

Take `CC(=O)[PH](=O)O` [AcPH, acetyl phosphinate]: in experiment [2], the affinity corresponds to a Ki of 100 nM.
